Key:
[1] = tested on: HaCaT (human epidermal keratinocyte); experiment: MTT assay, cell proliferation of HaCaT; type: cell-based; conditions: 5 days
Description: (§1) Human Hair Follicle Dermal Papilla Cells (HFDPC) were purchased from Promo Cell (Heidelberg, Germany). Cells were cultured in ready-to-use HFDPC medium, which is composed of Basal Medium, Fetal Calf Serum (FCS), Supplement Kit (Promo Cell, Heidelberg, Germany) including basic FGF and insulin. Kit including HEPES Buffer Saline Solution (HBSS), trypsin/EDTA solution and Trypsin Neutralizing Solution (Promo Cell, Heidelberg, Germany) was used for subculture. Subcultured 4th to 6th TFDPC was used for experiments. HaCaT (human epidermal keratinocyte) was cultured in Dulbecco's modified Eagle's medium (DMEM, Gibco BRL,
(§2) 3-[4,5-dimethylthiazol-2yl]-2,5 diphenyl tetrazolium bromide (MTT) Assay
(§3) Cell proliferation of HFDPC and HaCaT were measured by using MTT method. After cells were seeded in 96-well with serum-free medium, the cells were incubated for 1 day (1.0×10^4 cells/well). Then, we replaced with new medium and cells were treated with 0.01 μM, 0.05 μM, 0.1 μμM, 0.5 μM and 1 μM samples, then incubated for 5 days. MTT solution (5 mg/ml) was added, the cells were cultivated in 37° C. incubator for 3 hours. Then, the medium were removed and the formazan crystal were dissolved with Dimethyl sulfoxide (DMSO), then the absorbance of the solution were measured.
As described in the FIG. 1 and FIG. 2, data were expressed as the percentage on the control that doesn't contain the treated samples. […]

[2] = tested on: caspase-3 and caspase-9 in HFDPC; experiment: Western blot, caspase-3 and caspase-9 in HFDPC; type: cell-based, human; conditions: 0.5 μM, 24 hours
Description: (§4) Western blot assay was performed as standard procedure to study the action mechanism on HFDPC and HaCaT proliferation mediated by 7′-phloroeckol. That is, cells were seeded with serum free medium in 6-well, then cultured for 24 hours (1.0×10^6 cells/well). Then, the cells were replaced with new medium and treated with the samples in the different concentrations for 1 hour to 24 hours. The cells were lysed in RIPA lysis buffer at 4° C. for 10 minutes. 10 μg cell lysate were divided by 10% SDS-polyacrylamide gel electrophoresis, transferred to polyvinylidenefluoride membrane filter and the membranes were blocked with 5% skim milk, hybridized with primary antibodies (1:10,000 dilution). Following the incubation with secondary horseradish peroxidase-conjugated antibodies at room temperature, immunoreactive protein was detected by using chemiluminescence ECL assay kit according to the manufacturer's instructions. Western blot band was visualized by using LAS3000® Luminescent image analyzer (Fujifilm Life Science, Tokyo, Japan).
(§5) Cells were treated with 7′-phloroeckol for 1 hour to 24 hours to examine the expression of protein by using western blot assay. […]
(§6) Data were expressed as a ratio of control group that doesn't contain the treated samples, the values are means±SEM, different letters written on the graph indicate a significant defference in Duncan's multiple range test (p<0.05). […]

[3] = tested on: ERK pathway (MEK ½, p-ERK, c-Fos) in HaCaT; experiment: Western blot, ERK pathway in HaCaT; type: cell-based, human; conditions: 1 hour
Description: as §4
(§7) Cells were treated with 7′-phloroeckol for 1 hour to 24 hours to examine the expression of protein by using western blot assay. Graph showing the result of western blot in HFDPC were illustrated in the FIGS. 3 to 6(a) and graphs showing the result of western blot in HaCaT were illustrated in the FIGS. 3 to 6(b). While HFDPC and HaCaT were treated with 7′-phloroeckol for 1 hour in the experiment on the pathway of ERK and AKT relating cell proliferation, HFDPC and HaCaT were treated with 7′-phloroeckol for 24 hours in the experiment on Bcl-2, Bax, p53, caspase-9 and caspase-3 relating apoptosis, then the protein expression were observed.
(§8) Data were expressed as a ratio of control group that doesn't contain the treated samples, the values are means±SEM, different letters written on the graph indicate a significant defference in Duncan's multiple range test (p<0.05).
(§9) HFDPC and HaCaT were treated with 7′-phloroeckol and cultured for 1 hour to study activation of 7′-phloroeckol on ERK pathway related to cell proliferation (FIG. 3).

[4] = tested on: AKT pathway (PI3K, p-AKT, whole AKT) in HFDPC; experiment: Western blot, AKT pathway in HFDPC; type: cell-based, human; conditions: 1 hour
Description: as §4, §7, §8
After HFDPC and HaCaT were treated with 7′-phloroeckol and cultured for 1 hour to study the activation of 7′-phloroeckol on AKT pathway related cell proliferation (FIG. 4). […] But, there was no difference in whole AKT levels between treated with samples and without samples. Also, 0.5 μM 7′-phloroekol induced 1.75-fold and 1.65-fold levels of PI3K and pAKT in HaCaT.

[5] = tested on: Bcl-2, Bax, p53 in HaCaT; experiment: Western blot, apoptosis-related factors in HaCaT; type: cell-based, human; conditions: 24 hours
Description: as §4, §7, §8
(§10) To study the apoptotic effect by 7′-phloroeckol, HFDPC and HaCaT were treated with 7′-phloroeckol, then cultured for 24 hours (FIG. 5).

[6] = tested on: caspase-3 and caspase-9 in HaCaT; experiment: Western blot, caspase-3 and caspase-9 in HaCaT; type: cell-based, human; conditions: 24 hours
Description: as §4, §7, §6

[7] = tested on: ERK pathway (MEK ½, p-ERK, total ERK, c-Fos) in HFDPC; experiment: Western blot, ERK pathway in HFDPC; type: cell-based, human; conditions: 1 hour
Description: as §4, §7, §8, §9

[8] = tested on: Human Hair Follicle Dermal Papilla Cells (HFDPC); experiment: MTT assay, cell proliferation of HFDPC; type: cell-based
Description: as §1, §2, §3
As described in the FIG. 1 and FIG. 2, data were expressed as the percentage on the control that doesn't contain the treated samples. […] Different letters as stated on the graph indicate a significant difference in Duncan's multiple range test (p<0.05).

[9] = tested on: AKT pathway (PI3K, pAKT) in HaCaT; experiment: Western blot, AKT pathway in HaCaT; type: cell-based, human; conditions: 0.5 μM, 1 hour
Description: as §4, §5, §6

[10] = tested on: Bcl-2, Bax, p53 in HFDPC; experiment: Western blot, apoptosis-related factors in HFDPC; type: cell-based, human; conditions: 24 hours
Description: as §4, §7, §8, §10

Oc1cc(O)cc(Oc2c(O)cc(O)c3c2Oc2c(O)cc(Oc4c(O)cc(O)cc4O)cc2O3)c1 [7′-phloroeckol, 1-(3′,5′-dihydroxyphenoxy)-7-(2″,4″,6-trihydroxyphenoxy)-2,4,9-trihydroxydibenzo-1,4-dioxin]
cell proliferation in HaCaT ([1]; 0.01-1 μM, percentage of control): increased the cell proliferation in dose-dependent manner
cell viability compared with 0.1 μM Minoxidil ([1]; HaCaT, 0.1 μM): higher cell viability than 0.1 μM Minoxidil
expression of caspase-3 protein versus control group [2]: 0.14 fold
expression of caspase-9 protein versus control group [2]: 0.13 fold
expression of MEK ½ protein [3]: increased in dose-dependent manner
expression of c-Fos protein [3]: increased in dose-dependent manner
expression of p-ERK protein [3]: increased in dose-dependent manner
PI3K levels versus control group ([4]; 0.05 μM): 1.76 fold
expression of phospho AKT (p-AKT) protein versus control group ([4]; 0.05 μM): 1.53 fold
PI3K levels versus control group ([4]; 0.5 μM): 3.07 fold
expression of phospho AKT (p-AKT) protein versus control group ([4]; 0.5 μM): 2.40 fold
whole AKT levels, treated versus untreated [4]: no difference
expression of Bcl-2 protein versus control group ([5]; 0.05 μM): 2.60 fold
expression of Bcl-2 protein versus control group ([5]; 0.5 μM): 4.21 fold
level of Bax versus control ([5]; 0.5 μM): 0.67 fold
level of p53 versus control ([5]; 0.5 μM): 0.72 fold
expression of caspase-3 protein versus control group ([6]; 0.05 μM): 0.88 fold
expression of caspase-3 protein versus control group ([6]; 0.5 μM): 0.68 fold
expression of caspase-9 [6]: suppressing the expression
expression of MEK ½ protein versus control group ([7]; 0.05 μM): 1.17 fold
level of phospho-ERK (p-ERK) versus control group ([7]; 0.05 μM): 1.39 fold
expression of MEK ½ protein versus control group ([7]; 0.5 μM): 1.65 fold
level of phospho-ERK (p-ERK) versus control group ([7]; 0.5 μM): 1.71 fold
expression of c-Fos protein ([7]; 0.05 and 0.5 μM): increased the expression of c-Fos protein
total ERK levels, treated versus untreated ([7]; 0.05 and 0.5 μM): no significant difference
cell proliferation in HFDPC ([8]; 0.01-1 μM, 5 days, percentage of control): increased the cell proliferation in dose-dependent manner
cell viability compared with 1 μM Minoxidil ([8]; HFDPC, 1 μM, 5 days): significantly higher cell viability than 1 μM Minoxidil
cell proliferation, 0.5 versus 1 μM ([8]; HFDPC, 0.5 to 1 μM): weren't significantly different
level of PI3K [9]: 1.75 fold
level of pAKT [9]: 1.65 fold
expression level of Bcl-2 [10]: decreased
expression level of p53 [10]: decreased
expression of proapoptotic molecule Bax [10]: decreased the expression of proapoptotic molecule Bax
expression level of Bcl-2 protein ([10]; dose-dependent): significantly increased
